Patent publication US20250051375A1, “ANTI-HIV COMPOUNDS” (Gilead Sciences, Inc., priority 2023, published 2025)
Values after ≈ are worked out from the molar mass of the structure shown.

How the values were obtained:
[1] = Intestinal S9 Assay (human GI S9); type: in vitro ADME; details: 1.0 mg/mL S9 protein; for half-life at 2 μM: human, TRIS pH 7.4, read-out: Human GI S9 T½
Summary of the method: (§1)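 Pooled dog or human intestinal S9 at 1.0 mg/mL protein in TRIS buffer pH 7.4 with ZnCl2 and MgCl2; compound at 2 μM, sampled 0–120 min and quenched. Remaining parent by LC-MS peak area ratio; half-life from first-order exponential decline fit.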

[2] = test system: HIV-1 IIIB strain; experiment: MT-4 HIV Wild Type Virus Infection Assay (IIIB Virus); type: cell-based; details: Human immunodeficiency virus 1, IIIB, MT4, 120 h, MT-4 cells acutely infected with HIV-1 IIIB, 5 day incubation, Cell-titer glo
Summary of the method: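 MT-4 cells at 2×10^6 cells/ml in RPMI/10% FBS were acutely infected with HIV-1 IIIB for 1 h at 37° C, diluted 25× and added to serially diluted compounds. After 5 days at 37° C, viability read by CellTiter-Glo luminescence; EC50 from dose-response curves.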

[3] = target: bovine intestinal alkaline phosphatase (Bos taurus (Bovine), UniProt P19111); experiment: BiALP: conversion by bovine intestinal alkaline phosphatase; type: in vitro ADME; details: 2 μM substrate, 100 ng/mL iALP, Tris pH 7.8, 37° C., 60 minutes; for [Intermediate A] or [Amprenavir]: parent formed
Summary of the method: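 Compounds at 2 μM final were incubated 60 min at 37° C in 0.1 M Tris-HCl pH 7.8 with 1 mM MgCl2 and 1 mM ZnCl2, with or without 100 ng/mL iALP (0.01 units/mL). Samples were quenched with acetonitrile/formic acid containing labetalol. Conversion was quantified by LC-MS peak area ratios against a 2 μM product standard.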

[4] = PBS Stability Assay; type: physicochemical; details: phosphate buffered saline pH 7.4; for half-life at 2 μM: buffer, pH 7.4, 2 μM, read-out: PBS T½; for PBS T½: 2 μM
Summary of the method: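 Test compound at 2 μM final was incubated in PBS, pH 7.4, and sampled at 0, 10, 20, 30, 60 and 120 min into acetonitrile/1% formic acid quench with labetalol internal standard. Remaining compound was quantified by LC-MS peak-area ratio, and half-life came from a first-order exponential fit.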

[5] = Solubility in FaSSIF; details: 23 °C, pH 6.5, fassif, thermodynamic from solid
Summary of the method: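 Concentration measured by HPLC-UV after solid compound was dosed at 5 mg/mL into pH 6.5 fasted-state simulated intestinal fluid containing taurocholate and lecithin (4:1 molar) and vortexed.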

[6] = Intestinal S9 Assay (dog GI S9); type: in vitro ADME; details: 1.0 mg/mL S9 protein; for Dog GI S9 [Intermediate A] / Dog GI S9 [Intermediate A] %: 2 μM, TRIS pH 7.4; for half-life at 2 μM: dog, TRIS pH 7.4, read-out: Dog GI S9 T½
Summary of the method: as §1

Chain of bovine intestinal alkaline phosphatase (P19111 20-506): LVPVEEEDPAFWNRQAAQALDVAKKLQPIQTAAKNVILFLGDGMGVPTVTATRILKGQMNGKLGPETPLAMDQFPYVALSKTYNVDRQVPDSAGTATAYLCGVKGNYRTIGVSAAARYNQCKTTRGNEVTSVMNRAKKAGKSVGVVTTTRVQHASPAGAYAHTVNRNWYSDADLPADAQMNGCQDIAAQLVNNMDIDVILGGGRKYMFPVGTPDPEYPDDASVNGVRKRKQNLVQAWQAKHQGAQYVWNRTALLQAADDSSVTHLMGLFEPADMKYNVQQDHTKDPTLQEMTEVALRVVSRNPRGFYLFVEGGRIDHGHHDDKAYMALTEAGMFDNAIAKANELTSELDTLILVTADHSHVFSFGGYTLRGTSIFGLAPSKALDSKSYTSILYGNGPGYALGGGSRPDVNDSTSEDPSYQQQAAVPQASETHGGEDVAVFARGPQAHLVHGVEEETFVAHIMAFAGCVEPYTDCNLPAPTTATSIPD

SMILES: COC(=O)N[C@H](C(=O)N[C@@H](Cc1ccc(C#Cc2cnc(N3CC4CCC(C3)N4C3COC3)nc2)cc1)[C@H](CN(Cc1c(F)cc(-c2ccn(C(F)F)n2)cc1F)NC(=O)[C@@H](NC(=O)OC)C(C)(C)C(F)(F)F)OC(=O)CC(C)(C)c1c(CC(=O)N2C[C@@H](C(=O)O)C[C@H]2C(=O)O)cc(C)cc1OP(=O)(O)O)C(C)(C)C(F)(F)F [Example 10]
- Human GI S9 [Intermediate A] ([1]; 2 μM, TRIS pH 7.4): 86.8 nM
- Human GI S9 [Intermediate A] % ([1]; 2 μM, TRIS pH 7.4): 7.3%
- half-life at 2 μM [1]: 9.22 h
- EC50 [2]: 418 nM
- [Compound] [3]: 1868.8 nM
- biALP Intermediate A or [Amprenavir] (% of total) [3]: 4.9 % of total
- [Intermediate A] or [Amprenavir] [3]: 95.5 nM
- half-life at 2 μM [4]: 9.92 h
- solubility at 2 h [5]: 3120 µg/mL (≈ 1920 µM)
- Dog GI S9 [Intermediate A] [6]: 228.1 nM
- Dog GI S9 [Intermediate A] % [6]: 18.4%
- half-life at 2 μM [6]: 4.24 h

SMILES: COC(=O)N[C@H](C(=O)N[C@@H](Cc1ccc(C#Cc2cnc(N3CC4CCC(C3)N4C3COC3)nc2)cc1)[C@H](CN(Cc1c(F)cc(-c2ccn(C(F)F)n2)cc1F)NC(=O)[C@@H](NC(=O)OC)C(C)(C)C(F)(F)F)OC(=O)CC(C)(C)c1c(CC(=O)Nc2cccc(C(=O)O)c2)cc(C)cc1OP(=O)(O)O)C(C)(C)C(F)(F)F [Example 14]
- Human GI S9 [Intermediate A] ([1]; 2 μM, TRIS pH 7.4): 58.5 nM
- Human GI S9 [Intermediate A] % ([1]; 2 μM, TRIS pH 7.4): 3.9%
- half-life at 2 μM [1]: 10.1 h
- EC50 [2]: 178 nM
- [Compound] [3]: 2276.6 nM
- biALP Intermediate A or [Amprenavir] (% of total) [3]: 2.2 % of total
- [Intermediate A] or [Amprenavir] [3]: 50.3 nM
- half-life at 2 μM [4]: 5.58 h
- solubility at 2 h [5]: < 1000 µg/mL
- Dog GI S9 [Intermediate A] [6]: 210.8 nM
- Dog GI S9 [Intermediate A] % [6]: 13.8%
- half-life at 2 μM [6]: 6.69 h

SMILES: COC(=O)N[C@H](C(=O)N[C@@H](Cc1ccc(C#Cc2ccc(N3CC4CCC(C3)N4C3COC3)nc2)cc1)[C@H](CN(Cc1c(F)cc(-c2ccn(C(F)F)n2)cc1F)NC(=O)[C@@H](NC(=O)OC)C(C)(C)C(F)(F)F)OC(=O)CC(C)(C)c1c(CC(=O)Nc2cccc(C(=O)OO)c2)cc(C)cc1CP(=O)(O)O)C(C)(C)C(F)(F)F [Example 15]
- half-life at 2 μM [1]: 8.95 h
- EC50 [2]: 162 nM
- [Compound] [3]: 2690.4 nM
- half-life at 2 μM [4]: 4.8 h
- solubility at 2 h [5]: < 1000 µg/mL
- half-life at 2 μM [6]: 3.95 h

SMILES: COC(=O)N[C@H](C(=O)N[C@@H](Cc1ccc(C#Cc2cnc(N3CC4CCC(C3)N4C3COC3)nc2)cc1)[C@H](CN(Cc1c(F)cc(-c2ccn(C(F)F)n2)cc1F)NC(=O)[C@@H](NC(=O)OC)C(C)(C)C(F)(F)F)OC(=O)CC(C)(C)c1c(CC(=O)NCCS(=O)(=O)O)cc(C)cc1OP(=O)(O)O)C(C)(C)C(F)(F)F [Example 24]
- half-life at 2 μM [1]: 3.78 h
- EC50 [2]: 130 nM
- [Compound] [3]: 1717.9 nM
- PBS T½ [4]: 13.2 h
- solubility at 2 h [5]: 4660 µg/mL (≈ 2920 µM)
- half-life at 2 μM [6]: 2.24 h

SMILES: COC(=O)N[C@H](C(=O)N[C@@H](Cc1ccc(C#Cc2cnc(N3CC4CCC(C3)N4C3COC3)nc2)cc1)[C@H](CN(Cc1c(F)cc(-c2ccn(C(F)F)n2)cc1F)NC(=O)[C@@H](NC(=O)OC)C(C)(C)C(F)(F)F)OC(=O)CC(C)(C)c1c(CC(=O)NCC(=O)NS(C)(=O)=O)cc(C)cc1OP(=O)(O)O)C(C)(C)C(F)(F)F [Example 27, (5S,10S,11S,14S)-8-(4-(1-(difluoromethyl)-1H-pyrazol-3-yl)-2,6-difluorobenzyl)-11-(4-((2-(8-(oxetan-3-yl)-3,8-diazabicyclo[3.2.1]octan-3-yl)pyrimidin-5-yl)ethynyl)benzyl)-3,6,13,16-tetraoxo-5,14-bis(1,1,1-trifluoro-2-methylpropan-2-yl)-2,17-dioxa-4,7,8,12,15-pentaazaoctadecan-10-yl 3-methyl-3-(4-methyl-2-(2-((2-(methylsulfonamido)-2-oxoethyl)amino)-2-oxoethyl)-6-(phosphonooxy)phenyl)butanoate]
- half-life at 2 μM [1]: 2.46 h
- EC50 [2]: 173 nM
- [Compound] [3]: 2082.4 nM
- half-life at 2 μM [4]: 6.41 h
- solubility at 2 h [5]: 4420 µg/mL (≈ 2730 µM)
- half-life at 2 μM [6]: 1.82 h

SMILES: COC(=O)N[C@H](C(=O)N[C@@H](Cc1ccc(C#Cc2cnc(N3CC4CCC(C3)N4C3COC3)nc2)cc1)[C@H](CN(Cc1c(F)cc(-c2ccn(C(F)F)n2)cc1F)NC(=O)[C@@H](NC(=O)OC)C(C)(C)C(F)(F)F)OC(=O)CC(C)(C)c1c(CC(=O)NC/C(N)=N/O)cc(C)cc1OP(=O)(O)O)C(C)(C)C(F)(F)F [Example 28, (5S,10S,11S,14S)-8-(4-(1-(difluoromethyl)-1H-pyrazol-3-yl)-2,6-difluorobenzyl)-11-(4-((2-(8-(oxetan-3-yl)-3,8-diazabicyclo[3.2.1]octan-3-yl)pyrimidin-5-yl)ethynyl)benzyl)-3,6,13,16-tetraoxo-5,14-bis(1,1,1-trifluoro-2-methylpropan-2-yl)-2,17-dioxa-4,7,8,12,15-pentaazaoctadecan-10-yl 3-(2-(2-(((Z)-2-amino-2-(hydroxyimino)ethyl)amino)-2-oxoethyl)-4-methyl-6-(phosphonooxy)phenyl)-3-methylbutanoate]
- Human GI S9 T½ ([1]; 2 μM, TRIS pH 7.4): 13.2 h
- EC50 [2]: 307 nM
- [Compound] [3]: 2478.7 nM
- PBS T½ [4]: 13.2 h
- solubility at 2 h [5]: 15 µg/mL (≈ 9.64 µM)
- half-life at 2 μM [6]: 11.4 h

SMILES: COC(=O)N[C@H](C(=O)N[C@@H](Cc1ccc(C#Cc2cnc(N3CC4CCC(C3)N4C3COC3)nc2)cc1)[C@H](CN(Cc1c(F)cc(-c2ccn(C(F)F)n2)cc1F)NC(=O)[C@@H](NC(=O)OC)C(C)(C)C(F)(F)F)OC(=O)CC(C)(C)c1c(CC(=O)N[C@@]2(C(=O)O)CCOC2)cc(C)cc1OP(=O)(O)O)C(C)(C)C(F)(F)F [Example 29]
- half-life at 2 μM [1]: 3.31 h
- EC50 [2]: 213 nM
- [Compound] [3]: 1878.7 nM
- half-life at 2 μM [4]: 8.62 h
- solubility at 2 h [5]: 4970 µg/mL (≈ 3110 µM)
- half-life at 2 μM [6]: 0.822 h

SMILES: COC(=O)N[C@H](C(=O)N[C@@H](Cc1ccc(C#Cc2cnc(N3CC4CCC(C3)N4C3COC3)nc2)cc1)[C@H](CN(Cc1c(F)cc(-c2ccn(C(F)F)n2)cc1F)NC(=O)[C@@H](NC(=O)OC)C(C)(C)C(F)(F)F)OC(=O)CC(C)(C)c1c(CC(=O)N[C@]2(C(=O)O)CCOC2)cc(C)cc1OP(=O)(O)O)C(C)(C)C(F)(F)F [Example 30]
- half-life at 2 μM [1]: 4.11 h
- EC50 [2]: 197 nM
- [Compound] [3]: 1521.8 nM
- half-life at 2 μM [4]: 8.56 h
- solubility at 2 h [5]: 5370 µg/mL (≈ 3360 µM)
- half-life at 2 μM [6]: 1.17 h

SMILES: COC(=O)N[C@H](C(=O)N[C@@H](Cc1ccc(C#Cc2cnc(N3CC4CCC(C3)N4C3COC3)nc2)cc1)[C@H](CN(Cc1c(F)cc(-c2ccn(C(F)F)n2)cc1F)NC(=O)[C@@H](NC(=O)OC)C(C)(C)C(F)(F)F)OC(=O)CC(C)(C)c1c(CC(=O)N[C@@H](CCS(=O)(=O)O)C(=O)O)cc(C)cc1OP(=O)(O)O)C(C)(C)C(F)(F)F [Example 33]
- half-life at 2 μM [1]: 3.72 h
- EC50 [2]: 65.7 nM
- [Compound] [3]: 1487.1 nM
- half-life at 2 μM [4]: 5.71 h
- solubility at 2 h [5]: 4240 µg/mL (≈ 2570 µM)
- half-life at 2 μM [6]: 1.51 h

SMILES: COC(=O)N[C@H](C(=O)N[C@@H](Cc1ccc(C#Cc2cnc(N3CC4CCC(C3)N4C3COC3)nc2)cc1)[C@H](CN(Cc1c(F)cc(-c2ccn(C(F)F)n2)cc1F)NC(=O)[C@@H](NC(=O)OC)C(C)(C)C(F)(F)F)OC(=O)CC(C)(C)c1c(CC(=O)NC(CCP(=O)(O)O)C(=O)O)cc(C)cc1OP(=O)(O)O)C(C)(C)C(F)(F)F (stereo partly drawn) [Example 35]
- half-life at 2 μM [1]: 3.21 h
- EC50 [2]: 65.7 nM
- [Compound] [3]: 2145.2 nM
- half-life at 2 μM [4]: 3.27 h
- solubility at 2 h [5]: 3560 µg/mL (≈ 2160 µM)
- half-life at 2 μM [6]: 0.235 h
